Test results from paper PMC5799700, “Screening for PPAR Non-Agonist Ligands Followed by Characterization of a Hit, AM-879, with Additional No-Adipogenic and cdk5-Mediated Phosphorylation Inhibition Properties” (Frontiers in Endocrinology, 2018).
Entries after “also recorded” stand apart in the source; their conditions may differ.

Tests used:
[1] = target: T1, PPARγ LBD (Homo sapiens, UniProt P37231); test: Thermal shift assay (TSA), SYPRO Orange; assay type: binding; settings: PPARγ 4 μM, threefold ligand excess (12 μM)
T1 construct: construction (isoform PPARγ1), encoding AAs 207–477, inserted in pET 28a (+); made in house; host or cells: Escherichia coli BL21 (DE3)
T1 sequence (P37231 207-477 isoform P37231-2): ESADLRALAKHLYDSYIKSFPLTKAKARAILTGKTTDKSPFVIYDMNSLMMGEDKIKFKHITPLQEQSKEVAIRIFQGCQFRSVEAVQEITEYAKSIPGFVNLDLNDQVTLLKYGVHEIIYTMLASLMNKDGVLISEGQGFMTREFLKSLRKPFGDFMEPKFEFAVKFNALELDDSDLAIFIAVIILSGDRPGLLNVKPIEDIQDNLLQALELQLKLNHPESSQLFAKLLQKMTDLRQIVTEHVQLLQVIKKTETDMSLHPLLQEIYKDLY
Procedure: Protein thermal unfolding was monitored by measuring the SYPRO® Orange probe (Life technologies) fluorescence. […] Rosi was used as a PPARγ full agonist control and, dimethyl sulfoxide (DMSO), as apo-PPARγ control. TSA was performed in triplicates, in 96-well PCR microplates (Applied Biosystems—Life Technologies), through an RT-PCR device (7500 Real Time PCR System). Samples were heated at 1°C per min, from 10 to 90°C. Fluorescence intensities were plotted as a function of temperature and, the melting temperature (Tm) of the protein unfolding transition was obtained through a Boltzmann model in Origin Pro 8.1 and using an Excel based worksheet (DSF Analysis v3.0.2, ftp://ftp.sgc.ox.ac.uk/pub/biophysics).

[2] = target: T1, PPARγ LBD; test: NanoDSF, intrinsic tryptophan and tyrosine fluorescence; assay type: binding; settings: PPARγ 25 μM, ligand 75 μM (3 M excess)
Procedure: Intrinsic tryptophan and tyrosine fluorescence were measured using NT48 device (NanoTemper), as a more sensitive technology to check protein stability in comparison to TSA. […] The initial fluorescence scan of loaded capillaries was performed at 20°C, monitoring emission wavelength at 330 and 350 nm in order to find the optimal signal range. After this step, samples were subjected to a temperature ramp of 1°C/min from 20 to 90°C and fluorescence was constantly monitored. Data were analyzed and Tm was determined using PR. ThermControl software (NanoTemper).

[3] = target: T1, PPARγ LBD; test: ANS fluorescence quenching ligand-binding assay; settings: PPARγ 1 μM, ANS 10 μM, ligand 0.1-60 μM, Hill model, 25°C; read-out: Kd (dissociation constant) from ANS displacement
Procedure: 8-Anilino-1-naphthalenesulfonic acid fluorescence quenching assay was performed incubating 1 μM of PPARγ with 10 μM of the fluorescent probe ANS for 30 min. Following this, increasing concentrations (0.1–60 μM) of the pre-selected 20 compounds were titrated in protein-ANS solution. […] Fluorescence data were fitted to binding curves using Hill model for dissociation constant (Kd) calculation. All experiments were performed in triplicates and data were processed using the software Origin Pro 8.1.

[4] = target: T2, PPARγ (Homo sapiens, UniProt P37231); test: Cell transactivation assay, GAL4-PPARγ-LBD reporter gene; assay type: cell-based; settings: 293T cells, up to 0.1 mM
T2 construct: a chimeric protein composed by GAL4-DBD and PPARγ-LBD; expressed in transfected cells; host or cells: 293T (ATCC CRL-3216)
T2 sequence (P37231 238-503 limits assumed): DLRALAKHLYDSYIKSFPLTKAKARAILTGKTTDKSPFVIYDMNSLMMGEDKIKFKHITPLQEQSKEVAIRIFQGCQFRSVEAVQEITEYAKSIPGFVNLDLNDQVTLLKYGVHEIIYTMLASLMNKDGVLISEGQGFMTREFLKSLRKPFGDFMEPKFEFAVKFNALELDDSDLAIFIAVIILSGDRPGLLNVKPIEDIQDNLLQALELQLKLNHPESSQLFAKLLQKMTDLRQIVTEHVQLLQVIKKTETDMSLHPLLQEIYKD
Procedure: (§1) For transactivation assays, cells were seeded in 24-well plates (density of 2.0 × 10^5 cells/well), and transiently transfected with Lipofectamine® 2000 (Invitrogen) and 0.5 μg of the following plasmids: pRL-TK, a transfection control, which express Renilla reniformis luciferase constitutively; pGRE-LUC, which contains responsive element for GAL4 protein followed by reporter gene of firefly luciferase; pBIND-PPARγ, a chimeric protein composed by GAL4-DBD and PPARγ-LBD, under control of the cytomegalovirus promoter (CMV), in a proportion of 1.5 μg DNA:2 μL of Lipofectamine. As negative control, empty BlueScript plasmid was used instead of pBIND-PPARγ. For isotype specificity transactivation assay, cells were seeded in 96-well plates (density of 4.0 × 10^4 cells/well) and transfected with pRL-TK; pGRE-LUC and pBIND-PPARα; and pBIND-PPARβ.
Four hours after transfection, the culture medium was exchanged to DMEM plus 10% FBS Charcoal stripped broth and 1 μM of each tested compound, Rosi or 1% DMSO was added to each well. In dose–response experiments, concentration of compounds was increased from 0.01 to 0.1 mM. After 24 h of treatment, reporter gene expression was measured with Dual-Luciferase® Reporter (DLR™) Assay System (Promega), according to manufacturer’s instructions in a GloMax-Multi + Detection System (Promega). […]

[5] = target: T3, PPARα (Homo sapiens, UniProt Q07869); test: Isotype specificity transactivation assay, GAL4-PPARα-LBD reporter gene; assay type: cell-based; settings: 293T cells, ligands 1 μM, compared with full agonist
T3 construct: using a GAL4-PPARα-LBD (A) or GAL4-PPARβ-LBD (B) reporter gene; expressed in transfected cells; host or cells: HEK 293T
T3 sequence (Q07869 239-466 limits assumed): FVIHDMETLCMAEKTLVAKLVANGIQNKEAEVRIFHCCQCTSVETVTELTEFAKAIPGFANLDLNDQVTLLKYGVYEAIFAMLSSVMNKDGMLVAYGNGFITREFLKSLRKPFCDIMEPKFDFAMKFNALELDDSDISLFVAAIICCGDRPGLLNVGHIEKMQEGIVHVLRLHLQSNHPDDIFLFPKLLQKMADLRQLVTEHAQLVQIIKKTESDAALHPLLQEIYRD
Procedure: as §1, with “293T (ATCC® CRL-3216™) cells were cultured in Dulbecco’s Modified Eagle’s Medium (DMEM, Gibco®) supplemented with 10% (v/v) fetal bovine serum, 50 U/mL penicillin, and […] streptomycin, at 37°C, and humidified atmosphere of 5% CO2. For” for “For”, “For isotype specificity transactivation assay, cells were seeded in 96-well plates (density of 4.0 × 10^4 cells/well) and transfected with pRL-TK; pGRE-LUC and pBIND-PPARα; and pBIND-PPARβ.” left out
(§2) Four hours after transfection, the culture medium was exchanged to DMEM plus 10% FBS Charcoal stripped broth and 1 μM of each tested compound, Rosi or 1% DMSO was added to each well. […] After 24 h of treatment, reporter gene expression was measured with Dual-Luciferase® Reporter (DLR™) Assay System (Promega), according to manufacturer’s instructions in a GloMax-Multi + Detection System (Promega). […]

[6] = target: T4, PPARβ (Homo sapiens, UniProt Q03181); test: Isotype specificity transactivation assay, GAL4-PPARβ-LBD reporter gene; assay type: cell-based; settings: 293T cells, ligands 1 μM, compared with full agonist
T4 construct: using a GAL4-PPARα-LBD (A) or GAL4-PPARβ-LBD (B) reporter gene; expressed in transfected cells; host or cells: HEK 293T
T4 sequence (Q03181 211-439 limits assumed): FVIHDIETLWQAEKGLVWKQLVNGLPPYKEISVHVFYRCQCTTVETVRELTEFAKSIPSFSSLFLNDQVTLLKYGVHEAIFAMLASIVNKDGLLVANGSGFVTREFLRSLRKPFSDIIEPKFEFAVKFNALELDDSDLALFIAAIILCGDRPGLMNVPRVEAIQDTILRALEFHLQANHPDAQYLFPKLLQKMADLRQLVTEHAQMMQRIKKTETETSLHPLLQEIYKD
Procedure: as §1, with “293T (ATCC® CRL-3216™) cells were cultured in Dulbecco’s Modified Eagle’s Medium (DMEM, Gibco®) supplemented with 10% (v/v) fetal bovine serum, 50 U/mL penicillin, and […] streptomycin, at 37°C, and humidified atmosphere of 5% CO2. For” for “For”, “For isotype specificity transactivation assay, cells were seeded in 96-well plates (density of 4.0 × 10^4 cells/well) and transfected with pRL-TK; pGRE-LUC and pBIND-PPARα; and pBIND-PPARβ.” left out
as §2

[7] = tested on: 3T3-L1 cells; test: Adipocyte differentiation assay, Oil Red O; assay type: cell-based; settings: 1 μM ligand; for Adipocyte differentiation / adipogenesis (in words): Oil Red O staining
Procedure: 3T3-L1 (ATCC® CRL-3242™) cells were cultured in DMEM (Gibco®) supplemented with 10% (v/v) fetal bovine serum, 50 U/mL penicillin, and […] streptomycin, at 37°C, and humidified atmosphere of 5% CO2. After achieved 70% confluency, cells were trypsinized and seeded in 6-well plates (Corning) at a density of 2.8 × 10^5 cells/well. After 2 days, cells were treated with dexamethasone ([…]) to induce preadipocytes differentiation, and 1 μM of Rosi, 1 μM of AM-879, or 1% DMSO. After treatment, the culture medium was exchanged every 48 h, supplemented with 1 μM of each ligand, for 6 days. In order to measure adipocyte differentiation, fully differentiated 3T3-L1 cells were washed with phosphate-buffered saline (PBS), fixed with 10% formalin (v/v) for 1 h, and then, stained with oil red solution (Oil Red O) (0.3% in isopropanol 60%) for 20 min. After staining, cells were washed with PBS and photographed in Nikon MTS microscope (Nikon). Lipid accumulation was also quantified by Oil Red O absorbance measurement at 520 nm. For this measurement, cells lysis was performed in 200 μL of isopropanol and 4% Igepal solution, and the absorbance of the samples was recorded in a 10-mm cuvette in a spectrophotometer (V-530, Jasco). Data were compared using unpaired t-test.

[8] = tested on: PPARγ target genes in 3T3-L1 cells; test: Gene expression analysis (RT-qPCR) in differentiated 3T3-L1 cells; assay type: cell-based; settings: 1 μM ligand, vs DMSO
Procedure: Total RNA from differentiated 3T3-L1 cells was extracted by RNeasy kit (Qiagen) and cDNAs were synthesized with High-Capacity cDNA Reverse Transcription Kit (ThermoFischer Scientific). Quantitative PCR reactions were performed with SYBR Real Time PCR master mixes (ThermoFischer Scientific) and 50 ng of cDNA, in a 7500 Real Time PCR system (Applied Biosystems). Relative mRNA expression was determined by the ΔΔ-Ct method normalized to GAPDH levels. The sequences of primers used in this study are presented in Table S2 in Supplementary Material.

[9] = target: T5, CDK5-mediated phosphorylation of PPARγ at serine 273 (Homo sapiens, UniProt P37231); test: In vitro phosphorylation assay (ADP-Glo); assay type: biochemical; settings: PPARγ LBD 1.2 μM, 5 M excess of ligand, 50 ng CDK5/p35, ATP 10 μM, 1 h
T5 construct: construction (isoform PPARγ1), encoding AAs 207–477, inserted in pET 28a (+); host or cells: Escherichia coli BL21 (DE3) for PPARγ LBD
T5 sequence (P37231 207-477 isoform P37231-2): T1 sequence (P37231 207-477 isoform P37231-2)
Procedure: Then, protein and ligands were incubated with 50 ng CDK5/p35 (Sigma), for 1 h, at room temperature, in the CDK5/p35 reaction buffer (composition recommended by manufacturer) and in the presence of ATP 10 μM. After reaction, ADP detection was performed by using ADP-Glo™ kinase assay (Promega) following manufacturer’s instructions. Luminesce signal was recorded using GloMax-Multi + Detection System (Promega) microplate luminometer.

[10] = target: T2, PPARγ; design: method as in PMID 24075729; settings: cited from earlier work

Row | Structure (SMILES) | Tm from TSA [1] | Tm from nanoDSF [2] | Kd [3] | PPARγ activation (dose-response, in words) [4] | PPARα activation [5] | PPARβ activation [6] | Adipocyte differentiation / adipogenesis (in words) [7] | Lipid accumulation (Oil Red O absorbance at 520 nm) in comparison with DMSO ([7]; 6 days) | Adipoq (Adiponectin) relative expression [8] | Cd36 relative expression [8] | Cebpa relative expression [8] | Cfd (Adipsin) relative expression [8] | Lep (Leptin) relative expression [8] | Lpl relative expression [8] | Pparg relative expression [8] | Decrease of CDK5-mediated phosphorylation of PPARγ (Ser 273) [9] | Effect on PPARγ activation (earlier description as possible antagonist) [10]
1 | O=C(O)c1ccc(/C=C/C(=O)c2ccc3ccccc3c2)cc1 [P11] | 49.4 ± 0.1 °C | 48.0 ± 0.172 °C | 3.3 ± 0.7 µM | did not activate PPARγ even at the highest concentration; also recorded: did not present any significant change in PPARγ activation | none of them activated | none of them activated |  |  |  |  |  |  |  |  |  |  | 
2 | CN(CCOc1ccc(CC2SC(=O)NC2=O)cc1)c1ccccn1 (stereo not drawn) [Rosiglitazone, rosiglitazone, reference compound] |  |  |  |  |  |  | strongly induced adipogenesis |  |  |  |  |  |  |  |  |  | 
3 | O=C(O)c1ccc(COc2ccccc2C=C2C(=O)c3ccccc3C2=O)cc1 [AM-879, 4-({2-[(1,3-dioxo-1,3-dihydro-2H-inden-2-ylidene)methyl]phenoxy}methyl) benzoic acid] | 49.83 ± 0.01 °C | 48.8 ± 0.114 °C | 4.5 ± 0.6 µM | did not activate PPARγ even at the highest concentration; also recorded: did not present any significant change in PPARγ activation | none of them activated | none of them activated | did not induce a significant increase in adipocyte differentiation | 1.12 ± 0.13 fold | slightly reduced levels | slightly reduced levels | did not alter | slightly reduced levels | did not alter | did not alter | did not alter | 28% | reduced the activation of the receptor
